# Assay results: US9617244B2, “Antibacterial quinoline derivatives” (JANSSEN PHARMACEUTICA NV, priority 2012, dated 2017)
# Counter-ions that a name gives are not always drawn.
row,Compound,melting point
1,CSc1ccc2[nH]c(=O)c(C(c3cccc(Cl)c3)C3(O)CCNC(Cc4ccc(F)cc4F)C3)cc2c1 (centres unmarked) (as salt: hydrochloride) [Compound 310],126 °C
2,COc1nc2ccc(Cl)cc2cc1C(c1ccc(Cl)cc1)C1(O)CCNCC1c1ccccc1 (centres unmarked) (as salt: fumarate) [Compound 411],168 °C
3,CS(=O)(=O)c1ccc2[nH]c(=O)c(C(c3ccc(Cl)cc3)C3(O)CCN[C@@H](Cc4ccc(F)c(F)c4)C3)cc2c1 (stereo in doubt) (as salt: hydrochloride) [Compound 206],245 °C
4,COc1nc2ccc(S(C)(=O)=O)cc2cc1C(c1ccc(Cl)cc1)C1(O)CCNC(Cc2ccc(F)cc2F)C1 (centres unmarked) (as salt: trifluoroacetate) [Compound 305],133 °C
5,Cc1cc(F)ccc1C1CC(O)(C(c2ccc(Cl)cc2)c2cc3cc(Br)ccc3[nH]c2=O)CCN1 (centres unmarked) (as salt: hydrochloride) [Compound 106],> 250 °C
6,CC1CC(O)(C(c2ccc(Cl)cc2)c2cc3cc(Br)ccc3[nH]c2=O)CCN1 (centres unmarked) (as salt: hydrochloride) [Compound 131],241 °C
7,COc1nc2ccc(Br)cc2cc1C(c1ccc(Cl)cc1)C1(O)CCNC(C)C1 (centres unmarked) [Compound 123],210 °C
8,COc1nc2ccc(SC)cc2cc1C(c1ccc(Cl)cc1)C1(O)CCNCC1Cc1cccc(F)c1 (centres unmarked) (as salt: fumarate) [Compound 284],163 °C
9,O=c1[nH]c2ccc(Br)cc2cc1C(c1ccc(Cl)cc1)C1(O)CCNC(Cc2ccc(F)c(F)c2)C1 (centres unmarked) (as salt: hydrochloride) [Compound 126],> 260 °C
10,COc1nc2ccc(Br)cc2cc1C(c1cccc(Cl)c1)C1(O)CCNC(c2ccc(F)cc2C)C1 (centres unmarked) (as salt: fumarate) [Compound 150],184 °C
11,CC1CC(O)(C(c2ccc(Cl)cc2)c2cc3cc(Br)ccc3[nH]c2=O)CCN1 (centres unmarked) (as salt: hydrochloride) [Compound 129],240 °C
12,COc1nc2ccc(SC)cc2cc1C(c1ccc(Cl)cc1)C1(O)CCNC(Cc2ccccc2)C1 (centres unmarked) (as salt: fumarate) [Compound 90],140 °C
13,COc1nc2ccc(Cl)cc2cc1C(c1ccc(Cl)cc1)C1(O)CCNC(Cc2ccccc2)C1 (centres unmarked) (as salt: fumarate) [Compound 94],168 °C
14,COc1nc2ccc(F)cc2cc1C(c1ccc(Cl)cc1)C1(O)CCNC(c2ccc(F)cc2C)C1 (centres unmarked) (as salt: fumarate) [Compound 332],164 °C
15,CSc1ccc2[nH]c(=O)c(C(c3ccc(Cl)cc3)C3(O)CCNC(Cc4ccc(F)cc4)C3)cc2c1 (centres unmarked) (as salt: hydrochloride) [Compound 282],206 °C
16,CSc1nc2ccc(Br)cc2cc1C(c1ccc(Cl)cc1)C1(O)CCNC(Cc2ccccc2)C1 (centres unmarked) (as salt: fumarate) [Compound 88],194 °C
17,COc1nc2ccc(Br)cc2cc1C(c1ccc(Cl)cc1)C1(O)CCNC(Cc2ccc(F)c(F)c2)C1 (centres unmarked) [Compound 111],111 °C
18,Cc1cc(F)ccc1C1CC(O)(C(c2ccc(Cl)cc2)c2cc3cc(Cl)ccc3[nH]c2=O)CCN1 (centres unmarked) (as salt: hydrochloride) [Compound 303],> 250 °C
19,COc1nc2ccccc2cc1C(c1ccccc1)C1(O)CCNC(Cc2ccccc2)C1 (centres unmarked) (as salt: fumarate) [Compound 402],175 to 177 °C

row,Compound,melting point
1,CSc1ccc2[nH]c(=O)c(C(c3ccc(Cl)cc3)C3(O)CCNC(c4ccccc4)C3)cc2c1 (centres unmarked) (as salt: hydrochloride) [Compound 230],> 250 °C
2,COc1nc2ccc(Br)cc2cc1C(c1ccc(Cl)cc1)C1(O)CCNC(Cc2ccc(F)cc2F)C1 (centres unmarked) (as salt: trifluoroacetate) [Compound 319],169 °C
3,COc1nc2ccc(Cl)cc2cc1C(c1ccc(SC)cc1)C1(O)CCNC(c2ccc(F)cc2C)C1 (centres unmarked) (as salt: fumarate) [Compound 354],168 to 170 °C
4,O=c1[nH]c2ccc(Br)cc2cc1C(c1ccc(Cl)cc1)C1(O)CCNC(Cc2ccc(F)cc2F)C1 (centres unmarked) (as salt: hydrochloride) [Compound 322],248 °C
5,COc1nc2ccccc2cc1C(c1ccccc1)C1(O)CCNC(Cc2ccccc2)C1 (centres unmarked) (as salt: fumarate) [Compound 401],240 °C
6,COc1nc2ccc(S(C)(=O)=O)cc2cc1C(c1cccc(Cl)c1)C1(O)CCNC(Cc2ccc(F)cc2F)C1 (centres unmarked) (as salt: trifluoroacetate) [Compound 326],166 °C
7,CS(=O)(=O)c1ccc2[nH]c(=O)c(C(c3cccc(Cl)c3)C3(O)CCNC(Cc4ccc(F)cc4F)C3)cc2c1 (centres unmarked) (as salt: hydrochloride) [Compound 327],248 °C
8,COc1nc2ccc(S(C)(=O)=O)cc2cc1C(c1cccc(Cl)c1)C1(O)CCNC(Cc2ccc(F)cc2F)C1 (centres unmarked) (as salt: trifluoroacetate) [Compound 325],144 °C
9,O=c1[nH]c2ccc(Cl)cc2cc1C(c1ccc(Cl)cc1)C1(O)CCNC(Cc2ccc(F)cc2)C1 (centres unmarked) (as salt: hydrochloride) [Compound 343],> 250 °C
10,COc1nc2ccc(Br)cc2cc1C(n1cccn1)C1(O)CCNC(Cc2ccccc2)C1 (centres unmarked) (as salt: fumarate) [Compound 429],> 260 °C
11,COc1nc2ccc(SC)cc2cc1C(c1ccccc1)C1(O)CCNC(c2ccc(F)cc2C)C1 (centres unmarked) (as salt: fumarate) [Compound 170],176 °C
12,O=c1[nH]c2ccc(Br)cc2cc1C(c1ccc(Cl)cc1)C1(O)CCNC(Cc2ccc(F)c(F)c2)C1 (centres unmarked) (as salt: hydrochloride) [Compound 134],233 °C
13,Cc1cc(F)ccc1C1CC(O)(C(c2ccc(Cl)cc2)c2cc3cc(S(C)(=O)=O)ccc3[nH]c2=O)CCN1 (centres unmarked) (as salt: hydrochloride) [Compound 220],> 250 °C
14,O=c1[nH]c2ccc(Br)cc2cc1C(c1ccc(Cl)cc1)C1(O)CCNC(CC2CCCCC2)C1 (centres unmarked) (as salt: hydrochloride) [Compound 254],> 250 °C
15,COc1nc2ccc(SC)cc2cc1C(c1cccc(Cl)c1)C1(O)CCNC(Cc2ccc(F)cc2F)C1 (centres unmarked) (as salt: trifluoroacetate) [Compound 50],208 °C
16,O=c1[nH]c2ccc(F)cc2cc1C(c1ccc(Cl)cc1)C1(O)CCNC(Cc2ccccc2)C1 (centres unmarked) (as salt: hydrochloride) [Compound 375],> 250 °C
17,COc1nc2ccc(S(C)(=O)=O)cc2cc1C(c1ccc(Cl)cc1)C1(O)CCNC(Cc2ccc(F)cc2F)C1 (centres unmarked) (as salt: trifluoroacetate) [Compound 306],157 °C
18,Cc1cc(F)ccc1C1CC(O)(C(c2ccccc2)c2cc3cc(S(C)(=O)=O)ccc3[nH]c2=O)CCN1 (centres unmarked) (as salt: hydrochloride) [Compound 237],> 250 °C
19,O=c1[nH]c2ccc(Cl)cc2cc1C(c1ccc(Cl)cc1)C1(O)CCNC(Cc2ccccc2)C1 (centres unmarked) (as salt: hydrochloride) [Compound 239],> 250 °C

row,Compound,melting point
1,CSc1ccc2[nH]c(=O)c(C(c3cccc(Cl)c3)C3(O)CCNC(Cc4ccc(F)cc4F)C3)cc2c1 (centres unmarked) (as salt: hydrochloride) [Compound 309],> 260 °C
2,COc1nc2ccc(Br)cc2cc1C(c1ccc(Cl)cc1)C1(O)CCN(Cc2ccccc2)C(Cc2ccccc2)C1 (centres unmarked) [Compound 75],192 °C
3,COc1nc2ccc(F)cc2cc1C(c1ccc(Cl)cc1)C1(O)CCNC(c2ccc(F)cc2C)C1 (centres unmarked) (as salt: fumarate) [Compound 330],170 °C
4,COc1nc2ccc(Cl)cc2cc1C(c1ccc(Cl)cc1)C1(O)CCNC(c2ccc3ccccc3c2)C1 (centres unmarked) (as salt: fumarate) [Compound 430],184 °C
5,O=c1[nH]c2ccc(Br)cc2cc1C(c1ccc(Cl)cc1)C1(O)CCNC(Cc2ccc(F)cc2F)C1 (centres unmarked) (as salt: hydrochloride) [Compound 315],> 260 °C
6,Cc1cc(F)ccc1C1CC(O)(C(c2cccc(Cl)c2)c2cc3cc(S(C)(=O)=O)ccc3[nH]c2=O)CCN1 (centres unmarked) (as salt: hydrochloride) [Compound 159],> 250 °C
7,CS(=O)(=O)c1ccc2[nH]c(=O)c(C(c3ccc(Cl)cc3)C3(O)CCN[C@@H](Cc4ccc(F)c(F)c4)C3)cc2c1 (stereo in doubt) (as salt: hydrochloride) [Compound 205],> 250 °C
8,COc1nc2ccc(Br)cc2cc1C(c1ccc(Cl)cc1)C1(O)CCNC(Cc2ccccc2)C1 (centres unmarked) [Compound 78],130 °C
9,COc1nc2ccc(Br)cc2cc1C(c1cccnc1)C1(O)CCNC(Cc2ccccc2)C1 (centres unmarked) (as salt: fumarate) [Compound 428],217 °C
10,COc1nc2ccccc2cc1C(c1ccccc1)C1(O)CCNC(c2ccc(F)cc2C)C1 (centres unmarked) (as salt: fumaric acid salt) [Compound 16],166 to 168 °C
11,COc1nc2ccc(Br)cc2cc1C(c1cccnc1)C1(O)CCNC(Cc2ccccc2)C1 (centres unmarked) (as salt: fumarate) [Compound 427],174 °C
12,Cc1cc(F)ccc1C1CC(O)(C(c2ccccc2)c2cc3cc(-c4cccnc4)ccc3[nH]c2=O)CCN1 (centres unmarked) (as salt: hydrochloride) [Compound 236],> 250 °C
13,COc1nc2ccc(S(C)(=O)=O)cc2cc1C(c1ccc(Cl)cc1)C1(O)CCNC(c2ccc(F)cc2C)C1 (centres unmarked) (as salt: fumarate) [Compound 201],195 °C
14,O=c1[nH]c2ccc(Br)cc2cc1C(c1ccc(Cl)cc1)C1(O)CCNC(Cc2ccc(F)cc2)C1 (centres unmarked) (as salt: hydrochloride) [Compound 365],242 °C
15,COc1nc2ccc(Br)cc2cc1C(c1cccc(Cl)c1)C1(O)CCNC(Cc2ccccc2)C1 (centres unmarked) (as salt: fumarate) [Compound 35],145 °C
16,COc1nc2ccc(F)cc2cc1C(c1ccc(Cl)cc1)C1(O)CCNC(Cc2ccccc2)C1 (centres unmarked) (as salt: fumarate) [Compound 55],120 °C
17,O=c1[nH]c2ccc(Br)cc2cc1[C@@H](c1ccc(Cl)cc1)[C@]1(O)CCNC(Cc2ccccc2)C1 (some centres unmarked) (as salt: hydrochloride) [Compound 121],> 260 °C
18,COc1nc2ccc(Cl)cc2cc1C(c1ccc(Cl)cc1)C1(O)CCNC(Cc2ccc(F)cc2)C1 (centres unmarked) (as salt: fumarate) [Compound 348],145 °C
